# Experiments:
# Assay in all cases: relative viability (nuclei count vs DMSO), 5 days (fraction); higher = more cells survive
# A549 = test system: A549
# Summary of the method: (§1)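 Relative viability was taken as the ratio of nuclei in treated wells to nuclei in vehicle wells. Lung cancer cell lines in 1536-well plates received compounds by pin tool one day after seeding, either one drug alone or a fixed anchor-drug dose plus five library-drug doses (not always all listed) in √10 steps. Nuclei were counted on 4× images after 5 days of treatment, and values are medians of duplicate plates.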
# EBC-1 = test system: EBC-1
# Summary of the method: as §1
# IA-LM = test system: IA-LM
# Summary of the method: as §1
# NCI-H1299 = test system: NCI-H1299
# Summary of the method: as §1
# NCI-H1563 = test system: NCI-H1563
# Summary of the method: as §1
# Calu-6 = test system: Calu-6
# Summary of the method: as §1
structure (smiles),measurement,setting,value
Cc1cn(-c2cc(NC(=O)c3ccc(C)c(Nc4nccc(-c5cccnc5)n4)c3)cc(C(F)(F)F)c2)cn1 [Nilotinib] + CS(=O)(=O)CCNCc1ccc(-c2ccc3ncnc(Nc4ccc(OCc5cccc(F)c5)c(Cl)c4)c3c2)o1 [Lapatinib] (partner 2 µM),relative viability,A549; first compound 0.001 µM,1.01
same,relative viability,A549; first compound 0.003162 µM,1.07
same,relative viability,A549; first compound 0.01 µM,1.09
same,relative viability,A549; first compound 0.03162 µM,0.881
same,relative viability,A549; first compound 0.1 µM,0.672
same,relative viability,EBC-1; first compound 0.001 µM,0.208
same,relative viability,EBC-1; first compound 0.003162 µM,0.187
same,relative viability,EBC-1; first compound 0.01 µM,0.179
same,relative viability,EBC-1; first compound 0.03162 µM,0.186
same,relative viability,EBC-1; first compound 0.1 µM,0.162
same,relative viability,IA-LM; first compound 0.003162 µM,0.936
same,relative viability,IA-LM; first compound 0.01 µM,0.755
same,relative viability,IA-LM; first compound 0.03162 µM,0.459
same,relative viability,IA-LM; first compound 0.1 µM,0.794
same,relative viability,NCI-H1299; first compound 0.001 µM,0.967
same,relative viability,NCI-H1299; first compound 0.003162 µM,0.974
same,relative viability,NCI-H1299; first compound 0.01 µM,0.992
same,relative viability,NCI-H1299; first compound 0.03162 µM,1.05
same,relative viability,NCI-H1299; first compound 0.1 µM,0.98
same,relative viability,NCI-H1563; first compound 0.001 µM,0.961
same,relative viability,NCI-H1563; first compound 0.003162 µM,0.916
same,relative viability,NCI-H1563; first compound 0.01 µM,0.874
same,relative viability,NCI-H1563; first compound 0.03162 µM,0.873
same,relative viability,NCI-H1563; first compound 0.1 µM,0.596
Nc1cccc2c1CN(C1CCC(=O)NC1=O)C2=O (stereo unspecified) [Lenalidomide] + Nc1nc2[nH]cc(CCc3ccc(C(=O)N[C@@H](CCC(=O)O)C(=O)O)cc3)c2c(=O)[nH]1 [Pemetrexed] (partner 0.2 µM),relative viability,NCI-H1563; first compound 0.253 µM,1
same,relative viability,NCI-H1563; first compound 0.8 µM,0.361
same,relative viability,NCI-H1563; first compound 2.53 µM,0.952
same,relative viability,NCI-H1563; first compound 8 µM,0.637
Nc1cccc2c1CN(C1CCC(=O)NC1=O)C2=O (stereo unspecified) [Lenalidomide] + N=C(N)NC(=N)NCCc1ccccc1 [Phenformin] (partner 250 µM),relative viability,A549; first compound 0.253 µM,0.104
same,relative viability,A549; first compound 0.8 µM,0.158
same,relative viability,A549; first compound 2.53 µM,0.168
same,relative viability,A549; first compound 8 µM,0.208
same,relative viability,NCI-H1563; first compound 0.253 µM,0.667
same,relative viability,NCI-H1563; first compound 0.8 µM,0.774
same,relative viability,NCI-H1563; first compound 2.53 µM,0.697
same,relative viability,NCI-H1563; first compound 8 µM,0.613
Cc1cn(-c2cc(NC(=O)c3ccc(C)c(Nc4nccc(-c5cccnc5)n4)c3)cc(C(F)(F)F)c2)cn1 [Nilotinib] + Nc1nc2[nH]cc(CCc3ccc(C(=O)N[C@@H](CCC(=O)O)C(=O)O)cc3)c2c(=O)[nH]1 [Pemetrexed] (partner 0.2 µM),relative viability,NCI-H1563; first compound 0.001 µM,0.746
same,relative viability,NCI-H1563; first compound 0.003162 µM,0.712
same,relative viability,NCI-H1563; first compound 0.01 µM,0.796
same,relative viability,NCI-H1563; first compound 0.03162 µM,0.667
same,relative viability,NCI-H1563; first compound 0.1 µM,0.552
Nc1cccc2c1CN(C1CCC(=O)NC1=O)C2=O (stereo unspecified) [Lenalidomide] + COc1cc2c(Oc3ccc(NC(=O)C4(C(=O)Nc5ccc(F)cc5)CC4)cc3F)ccnc2cc1OCCCN1CCOCC1 [Foretinib] (partner 0.25 µM),relative viability,A549; first compound 0.253 µM,0.925
same,relative viability,A549; first compound 0.8 µM,0.954
same,relative viability,A549; first compound 2.53 µM,1.04
same,relative viability,A549; first compound 8 µM,0.897
same,relative viability,Calu-6; first compound 0.253 µM,0.932
same,relative viability,Calu-6; first compound 0.8 µM,0.889
same,relative viability,Calu-6; first compound 2.53 µM,0.921
same,relative viability,Calu-6; first compound 8 µM,0.887
same,relative viability,EBC-1; first compound 0.253 µM,0.0951
same,relative viability,EBC-1; first compound 0.8 µM,0.0871
same,relative viability,EBC-1; first compound 2.53 µM,0.0994
same,relative viability,EBC-1; first compound 8 µM,0.109
same,relative viability,IA-LM; first compound 0.253 µM,0.952
same,relative viability,IA-LM; first compound 0.8 µM,1.15
same,relative viability,IA-LM; first compound 2.53 µM,1.28
same,relative viability,IA-LM; first compound 8 µM,1.07
same,relative viability,NCI-H1299; first compound 0.253 µM,1.1
same,relative viability,NCI-H1299; first compound 0.8 µM,1.08
same,relative viability,NCI-H1299; first compound 2.53 µM,1.09
same,relative viability,NCI-H1299; first compound 8 µM,1.13
same,relative viability,NCI-H1563; first compound 0.253 µM,0.894
same,relative viability,NCI-H1563; first compound 0.8 µM,0.933
same,relative viability,NCI-H1563; first compound 2.53 µM,0.902
same,relative viability,NCI-H1563; first compound 8 µM,0.77
Nc1cccc2c1CN(C1CCC(=O)NC1=O)C2=O (stereo unspecified) [Lenalidomide] + COc1cccc2cc(-c3nc([C@H]4CC[C@H](C(=O)O)CC4)n4ncnc(N)c34)[nH]c12 [OSI-027] (partner 0.5 µM),relative viability,NCI-H1563; first compound 0.253 µM,0.751
same,relative viability,NCI-H1563; first compound 0.8 µM,0.8
same,relative viability,NCI-H1563; first compound 2.53 µM,0.804
same,relative viability,NCI-H1563; first compound 8 µM,0.72
Nc1cccc2c1CN(C1CCC(=O)NC1=O)C2=O (stereo unspecified) [Lenalidomide] + CC1(C)CCC(c2ccc(Cl)cc2)=C(CN2CCN(c3ccc(C(=O)NS(=O)(=O)c4ccc(N[C@H](CCN5CCOCC5)CSc5ccccc5)c(S(=O)(=O)C(F)(F)F)c4)cc3)CC2)C1 [Navitoclax] (partner 0.5 µM),relative viability,A549; first compound 0.253 µM,1.21
same,relative viability,A549; first compound 0.8 µM,1.17
same,relative viability,A549; first compound 2.53 µM,1.21
same,relative viability,A549; first compound 8 µM,1.24
same,relative viability,Calu-6; first compound 0.253 µM,0.814
same,relative viability,Calu-6; first compound 0.8 µM,0.805
same,relative viability,Calu-6; first compound 2.53 µM,0.803
same,relative viability,Calu-6; first compound 8 µM,0.863
same,relative viability,EBC-1; first compound 0.253 µM,0.374
same,relative viability,EBC-1; first compound 0.8 µM,0.399
same,relative viability,EBC-1; first compound 2.53 µM,0.434
same,relative viability,EBC-1; first compound 8 µM,0.481
same,relative viability,IA-LM; first compound 0.253 µM,0.895
same,relative viability,IA-LM; first compound 0.8 µM,0.715
same,relative viability,IA-LM; first compound 2.53 µM,0.829
same,relative viability,IA-LM; first compound 8 µM,0.786
same,relative viability,NCI-H1299; first compound 0.253 µM,1.05
same,relative viability,NCI-H1299; first compound 0.8 µM,1.04
same,relative viability,NCI-H1299; first compound 2.53 µM,1.07
same,relative viability,NCI-H1299; first compound 8 µM,1.05
Nc1cccc2c1CN(C1CCC(=O)NC1=O)C2=O (stereo unspecified) [Lenalidomide] + Cc1nc(Nc2ncc(C(=O)Nc3c(C)cccc3Cl)s2)cc(N2CCN(CCO)CC2)n1 [Dasatinib] (partner 0.075 µM),relative viability,NCI-H1563; first compound 0.253 µM,0.477
same,relative viability,NCI-H1563; first compound 0.8 µM,0.43
same,relative viability,NCI-H1563; first compound 2.53 µM,0.499
same,relative viability,NCI-H1563; first compound 8 µM,0.464
Nc1cccc2c1CN(C1CCC(=O)NC1=O)C2=O (stereo unspecified) [Lenalidomide] + Nc1ncn([C@H]2C[C@H](O)[C@@H](CO)O2)c(=O)n1 [Decitabine] (partner 2 µM),relative viability,A549; first compound 0.253 µM,0.211
same,relative viability,A549; first compound 0.8 µM,0.22
same,relative viability,A549; first compound 2.53 µM,0.268
same,relative viability,A549; first compound 8 µM,0.269
Nc1cccc2c1CN(C1CCC(=O)NC1=O)C2=O (stereo unspecified) [Lenalidomide] + O=C(CCCCCCC(=O)Nc1ccccc1)NO [Vorinostat] (partner 1 µM),relative viability,IA-LM; first compound 0.253 µM,0.852
same,relative viability,IA-LM; first compound 0.8 µM,0.969
same,relative viability,IA-LM; first compound 2.53 µM,1.22
same,relative viability,IA-LM; first compound 8 µM,0.814

# Reference: the supplement of paper PMC10307832
